The values below come from US4740233A, “Substituted 1,2,4-triazolo[1,5-a]-pyrimidine-2-sulfonamides and compositions and methods of controlling undesired vegetation and suppressing the nitrification of ammonium nitrogen in soil” (The Dow Chemical Company, priority 1986, dated 1988).

Assay [1] has as its system cotton. The assay can be described thus: Preemergent control of plant species. The note with it: Gossypium hirsutum, pre-emergence, 336 h; 0.25 lb/acre; read-out: percent preemergent control. The format is in vivo, Gossypium spp. In outline: (§1)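 Test compositions were applied evenly to the surface of freshly seeded soil beds and kept under greenhouse conditions for two weeks. Percent control reflects growth reduction compared with water-treated beds of the same species.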

In assay [2] the test system is rape. The experiment in a line: Preemergent control of plant species. The format is in vivo, Brassica napus. The note with it: Brassica napus, pre-emergence, 336 h; 0.25 lb/acre; read-out: percent preemergent control. In outline: as §1
In assay [3] the test system is soybean. The assay can be described thus: Preemergent control of plant species. In kind it is in vivo, Glycine max. As to conditions: Glycine max, pre-emergence, 336 h; 0.25 lb/acre; read-out: percent preemergent control. A digest of the protocol:
as §1

Assay [4] deals with sugar beet. The assay can be described thus: Preemergent control of plant species. In kind it is in vivo, Beta saccharifera. As to conditions: Beta vulgaris, pre-emergence, 336 h; 0.25 lb/acre; read-out: percent preemergent control. In outline:
as §1

The test system of assay [5] is jimsonweed. The assay can be described thus: Preemergent control of plant species. In kind it is in vivo, Datura stramonium. As to conditions: Datura stramonium, pre-emergence, 336 h; 0.25 lb/acre; read-out: percent preemergent control. A digest of the protocol: as §1
In assay [6] the test system is annual morning glory. The assay can be described thus: Preemergent control of plant species. The format is in vivo, Ipomoea spp. The note with it: Ipomoea, pre-emergence, 336 h; 0.25 lb/acre; read-out: percent preemergent control. A digest of the protocol: as §1
In assay [7] the test system is velvetleaf. The assay can be described thus: Preemergent control of plant species. In kind it is in vivo, Abutilon theophrasti. As to conditions: Abutilon theophrasti, pre-emergence, 336 h; 0.25 lb/acre; read-out: percent preemergent control. In outline:
as §1

The test system of assay [8] is corn. The experiment in a line: Preemergent control of plant species. The format is in vivo, Zea mays. The note with it: Zea mays, pre-emergence, 336 h; 0.25 lb/acre; read-out: percent preemergent control. In outline: as §1
For assay [9], the system named is rice. The assay can be described thus: Preemergent control of plant species. The format is in vivo, Oryza sativa. The note with it: Oryza sativa, pre-emergence, 336 h; 0.25 lb/acre; read-out: percent preemergent control. A digest of the protocol:
as §1

For assay [10], the system named is sorghum. The assay can be described thus: Preemergent control of plant species. In kind it is in vivo, Sorghum vulgare. The note with it: Sorghum, pre-emergence, 336 h; 0.25 lb/acre; read-out: percent preemergent control. A digest of the protocol:
as §1

For assay [11], the system named is wheat. The experiment in a line: Preemergent control of plant species. As to conditions: Triticum aestivum, pre-emergence, 336 h; 0.25 lb/acre; read-out: percent preemergent control. In kind it is in vivo, Triticum aestivum. A digest of the protocol:
as §1

Assay [12] relates to barnyardgrass. The experiment in a line: Preemergent control of plant species. In kind it is in vivo, Echinochloa crusgalli. The note with it: Echinochloa crus-galli, pre-emergence, 336 h; 0.25 lb/acre; read-out: percent preemergent control. In outline: as §1
Assay [13] deals with johnson grass. The experiment in a line: Preemergent control of plant species. The note with it: Sorghum halepense, pre-emergence, 336 h; 0.25 lb/acre; read-out: percent preemergent control. In kind it is in vivo, Sorghum halepense. In outline: as §1
Assay [14] relates to wild oats. The assay can be described thus: Preemergent control of plant species. In kind it is in vivo. As to conditions: Avena fatua, pre-emergence, 336 h; 0.25 lb/acre; read-out: percent preemergent control. How it is done: The seeds of various species of plants were planted in beds of good agricultural soil in a greenhouse. A number of compositions of the present invention, generally in the nature of an aqueous emulsion, were applied at rates listed in the table so as to deposit a predetermined amount of active ingredients uniformly throughout the surface of the bed. Another seed bed was treated only with water to serve as a control. After treatment the seed beds were maintained for two weeks under greenhouse conditions conducive for good plant growth and watered as necessary. Control refers to the reduction in growth compared to the observed results of the same untreated species.

The subject of assay [15] is yellow foxtail. The assay can be described thus: Preemergent control of plant species. The format is in vivo, Setaria lutescens. The note with it: Setaria, pre-emergence, 336 h; 0.25 lb/acre; read-out: percent preemergent control. A digest of the protocol: as §1
In assay [16] the test system is yellow nutsedge. The experiment in a line: Preemergent control of plant species. The format is in vivo, Cyperus esculentus. As to conditions: Cyperus, pre-emergence, 336 h; 0.25 lb/acre; read-out: percent preemergent control. A digest of the protocol: as §1
Assay [17] deals with nitrification of ammonium nitrogen. The assay can be described thus: Suppression of nitrification of ammonium nitrogen in soil. As to conditions: 27° C. In outline:
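Value is % NH4-N remaining after a two-week, 27° C incubation of treated soil held at 1/3 bar tension moisture. Nitrate was measured with an ion-selective electrode after extraction with ammonium sulfate solution and 10 min shaking.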

With `COC(=O)c1ccc(C)c(NS(=O)(=O)c2nc3nc(C)cc(C)n3n2)c1Br` [Compound 86, methyl 3-amino-2-bromo-4-methyl-N-(5,7-dimethyl-1,2,4-triazolo[1,5-a]pyrimidine-2-sulfonyl)benzoate], the plant injury at 280.212 g/ha in assay [1] was found to be 0%; in assay [2] it was 100%; in assay [3], 20%; in assay [4], 100%; in assay [8], 0%; in assay [9], 0%. Besides, the plant injury at 280.212 g/ha in [10] and in [11] was 0% throughout. In addition, the pest or weed control at 280.212 g/ha in assay [5] was determined as 100%; in assay [6] it was 0%; in assay [7] it was 0%; in assay [12] it was 0%; in assay [13], 0%; in assay [14], 0%. Also, the pest or weed control at 280.212 g/ha in [15] and in [16] was 0% throughout.
On to `CC(=O)OCc1cccc(Cl)c1NS(=O)(=O)c1nc2nc(C)cc(C)n2n1` [Compound 94, 5,7-dimethyl-N-(2-acetoxymethyl-6-chlorophenyl)-1,2,4-triazolo[1,5-a]pyrimidine-2-sulfonamide], for which the plant injury at 280.212 g/ha in assay [1] was 60%; in assay [2] it was 100%; in assay [3], 50%; in assay [4], 0%; in assay [8], 0%; in assay [9], 0%. For the same compound, in [10], the plant injury at 280.212 g/ha was found to be 0%. Moreover, the pest or weed control at 280.212 g/ha in assay [5], in assay [6], in assay [7], in assay [12], in assay [13] and in assay [14] was 0% in each case. The pest or weed control at 280.212 g/ha in assay [15] and in assay [16] was 0% in each case. The “% NH4-N Remaining After 2 Weeks Incubation” value in [17] (0.06 ppm) was found to be 28%; in [17] (0.25 ppm), 48%; in assay [17] (1 ppm), 56%; in assay [17] (4 ppm), 84%.
Turning to `Cc1ccnc2nc(S(=O)(=O)Nc3c(F)cccc3F)nn12` [Compound 185], the plant injury at 280.212 g/ha in [1] was determined as 98%; in [2] it was 100%; in assay [3], 70%; in [4], 98%; in assay [8] it was 0%; in assay [9], 20%. Also, the plant injury at 280.212 g/ha was 90% in assay [10] and 0% in [11]. Further, the pest or weed control at 280.212 g/ha in assay [5] came to 90%; in assay [6] it was 80%; in assay [7] it was 100%; in [12], 20%; in [13], 90%; in [14], 0%. In assay [16], the pest or weed control at 280.212 g/ha was 0%.
In the case of `CC(=O)N(c1c(Cl)cccc1Cl)S(=O)(=O)c1nc2nc(C)ccn2n1` [Compound 268], the plant injury at 280.212 g/ha in assay [1] is 100%; in [2], 100%; in assay [3], 0%; in [4], 100%; in [8] it was 80%; in assay [9], 100%. The plant injury at 280.212 g/ha in [10] turned out to be 100%. Further, the pest or weed control at 280.212 g/ha is 100% in [5]; 90% in assay [6]; 100% in assay [7]; 80% in [13]; 30% in assay [14]; 100% in assay [15]. Besides, in [16], the pest or weed control at 280.212 g/ha stood at 100%. For the same compound, the “% NH4-N Remaining After 2 Weeks Incubation” value in assay [17] (0.06 ppm) stood at 53%; in assay [17] (0.25 ppm), 71%; in assay [17] (1 ppm) it was 80%; in [17] (4 ppm), 92%.
Regarding `Cc1ccn2nc(S(=O)(=O)Nc3c(C)cccc3Cl)nc2n1` [Compound 144], the plant injury at 280.212 g/ha in assay [1] came to 100%; in assay [2], 100%; in assay [3], 60%; in assay [4], 100%; in assay [8], 70%; in assay [9], 40%. For the same compound, the plant injury at 280.212 g/ha in assay [11] was determined as 0%. In addition, the pest or weed control at 280.212 g/ha in assay [5] is 100%; in [6], 95%; in assay [7] it was 100%; in assay [12] it was 80%; in [13] it was 100%; in assay [14], 70%. For the same compound, the pest or weed control at 280.212 g/ha in assay [15] and in [16] was 100% in each case. Also, the “% NH4-N Remaining After 2 Weeks Incubation” value in assay [17] (0.06 ppm) was 16%; in [17] (0.25 ppm), 43%; in [17] (1 ppm), 63%; in assay [17] (4 ppm), 92%.
Consider `Cc1cnc2nc(S(=O)(=O)Nc3c(Cl)cccc3Cl)nn2c1` [Compound 192], for which the plant injury at 280.212 g/ha is 95% in assay [1]; 100% in [2]; 90% in assay [3]; 100% in [4]; 10% in assay [8]; 0% in assay [9]. Besides, in assay [11], the plant injury at 280.212 g/ha was found to be 0%. For the same compound, the pest or weed control at 280.212 g/ha is 100% in assay [5]; 97% in assay [6]; 100% in [7]; 0% in [12]; 0% in assay [13]; 0% in assay [14]. Further, the pest or weed control at 280.212 g/ha was 70% in assay [15] and 90% in assay [16]. Moreover, the “% NH4-N Remaining After 2 Weeks Incubation” value in [17] (0.06 ppm) was found to be 21%; in [17] (0.25 ppm), 48%; in [17] (1 ppm), 74%; in [17] (4 ppm) it was 86%.
Turning to `Cc1ccn2nc(S(=O)(=O)N(C(=O)C3CC3)c3c(F)cccc3F)nc2n1` [Compound 289], the plant injury at 280.212 g/ha in [1] worked out at 100%; in [2], 100%; in assay [3] it was 50%; in assay [4], 100%; in [8], 95%; in assay [10], 100%. The plant injury at 280.212 g/ha in [11] was determined as 80%. For the same compound, the pest or weed control at 280.212 g/ha in [5], in [6], in [7], in [12], in [13] and in assay [14] was 100% in each case. Besides, the pest or weed control at 280.212 g/ha in assay [15] and in [16] was 100% each time.
